Laboratory results reported in patent US11160788B2, “Caspase-1 inhibition and uses thereof for prevention and treatment of neurological conditions” (priority 2016, dated 2021).

Tests used:
recombinant human Casp1 = target: T1, recombinant human Casp1 (Homo sapiens, UniProt P29466); experiment: Caspase inhibition IC50, recombinant human Casp1; type: biochemical; conditions: read-out: IC50 against human Casp1
T1 sequence (P29466 120-297 limits assumed): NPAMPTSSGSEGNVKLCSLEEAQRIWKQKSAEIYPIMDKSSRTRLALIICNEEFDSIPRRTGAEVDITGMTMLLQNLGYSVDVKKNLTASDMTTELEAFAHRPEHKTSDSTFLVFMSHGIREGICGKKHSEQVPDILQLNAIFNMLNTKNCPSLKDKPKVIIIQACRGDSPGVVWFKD
T1 sequence (P29466 317-404 limits assumed): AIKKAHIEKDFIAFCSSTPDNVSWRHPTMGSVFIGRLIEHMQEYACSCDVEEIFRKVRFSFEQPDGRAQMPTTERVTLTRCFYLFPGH
Method: (§1) FIG. 14: Selectivity and blood brain permeability of VX-765 and VRT-043198. (a-b) IC50 of VX-765 (a) and VRT-043198 (b) against human Casp1-10. (c-d) IC50 of VX-765 (c) and VRT-043198 (d) against mouse Casp1 and Casp11. (e) Blood brain barrier permeability and presence of VX-765 and VRT-043198 in 3 wild type and 4 J20 mice brain cortex and hippocampus and in plasma. Ratios of brain levels to plasma levels are calculated.

mouse recombinant Casp1 = target: T2, mouse recombinant Casp1 (Mus musculus, UniProt P29452); experiment: Caspase inhibition IC50, mouse recombinant Casp1; type: biochemical; conditions: read-out: IC50 against mouse Casp1
T2 sequence (P29452 119-296 limits assumed): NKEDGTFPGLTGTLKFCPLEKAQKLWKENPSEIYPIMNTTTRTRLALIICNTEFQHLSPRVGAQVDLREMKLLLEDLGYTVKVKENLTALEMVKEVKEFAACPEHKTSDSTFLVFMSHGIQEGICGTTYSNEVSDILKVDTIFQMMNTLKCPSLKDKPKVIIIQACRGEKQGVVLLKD
T2 sequence (P29452 315-402 limits assumed): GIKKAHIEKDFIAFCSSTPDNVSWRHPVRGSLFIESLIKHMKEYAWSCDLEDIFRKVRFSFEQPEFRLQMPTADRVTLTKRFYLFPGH
Method: as §1

[1] = system: serum deprived human primary neurons; experiment: Neuritic beading in serum-deprived human primary neurons; type: cell-based; conditions: reversal treatment 48 hrs after serum deprivation
Method: (§2) FIG. 13: VX-765 protects CNS primary human neurons (HPN) against APP- or serum deprivation-mediated neuritic beading. (a) MTT assay with increasing dose of VX-765. (b) Fluorescent micrographs showing homogeneous distribution of EGFP in normal neurons and neuritic beading in APP-transfected neurons. (c) Percentage beading in APP-transfected or serum-deprived neurons treated 1 h before and continuously with stressor (Pre-treatment) or 48 h after stressor (post-beading treatment) with 25 or 50 μM VX-765 or with 5 μM Z-YVAD-fmk Casp1 peptide inhibitor. […] (d-e) HPN secreted or cellular Aβ42/total Aβ38+40+42 (d) (F(3,4)=12.73, p=0.0163, ANOVA, Dunnett's post-hoc compared to Serum+DMSO, *p<0.05), and (e) levels of secreted II-1β, IFN-γ, TNF-α, and II-6 from untreated (+S), serum deprived (−S), or serum-deprived human neurons treated with 25 or 50 μM VX-765.
(§3) EGFP-labeled human primary neurons were either APP^WT transfected or serum deprived. Two treatment strategies were employed to determine VX-765's effects on neuronal degeneration: our Pre-Treatment strategy looked at whether VX-765 could block neuronal degeneration when administered 1 hr prior to APP^WT transfection or serum deprivation, while our Reversal Treatment strategy looked at whether VX-765 could reverse degenerative effects when administered 48 hrs after APP^WT transfection or serum deprivation. Neurons displaying beaded morphology were counted with live imaging and measured as a percentage of the total number of eGFP+ neurons from 24-72 hrs after treatment. The irreversible caspase-1 inhibitor YVAD-fmk was used as positive control in our experiments. Results were obtained from averaging counts for at least 100 eGFP+ neurons per experiment in three independent neuron preparations.

[2] = system: APP^WT-transfected human primary neurons; experiment: Neuritic beading in APPWT-transfected human primary neurons; type: cell-based
Method: as §2, §3

| IC50 (recombinant human Casp1) | IC50 (mouse recombinant Casp1) | Compound | neuritic beading [1] | neuritic beading ([2]; pre-treatment 1 h before and continued, VX-765 25 and 50 μM, Z-YVAD-fmk 5 μM, 48 and 72 h) | neuritic beading ([2]; reversal (post-beading) treatment 48 hrs after APP^WT transfection, listed as YVAD) | neuritic beading ([2]; reversal (post-beading) treatment 48 hrs after APP^WT transfection, listed as YVAD-fmk) |
| --- | --- | --- | --- | --- | --- | --- |
| 9.91 nM | 18 nM | CC(C)(C)[C@H](NC(=O)c1ccc(N)c(Cl)c1)C(=O)N1CCC[C@H]1C(=O)N[C@H]1CC(=O)OC1O (stereo partly drawn) [VRT-043198, (2S)-1-((S)-2-(4-amino-3-chlorobenzamido)-3,3-dimethylbutanoyl)-N-((3S)-2-hydroxy-5-oxotetrahydrofuran-3-yl)pyrrolidine-2-carboxamide] | – | – | – | – |
| – | – | Z-YVAD-fmk | neither YVAD nor VX-765 were able to reverse neuritic beading | prevented neuritic beading | not able to reverse neuritic beading at any time-point | unable to reverse or prevent neuritic beading at any time-point |
